# Experiments:
# human iNKT cell clones = test: Cytokine responses of iNKT cell clones, Hela-CD1d cells compared with monocyte-derived DC as APC; assay type: cell-based; settings: limited analog concentrations
# Text: CD1d-transfected Hela cells might not be representative of the presentation by DCs, so we performed a comparative analysis, with more limited analog concentrations, between Hela-CD1d cells and monocyte-derived DC (Supplementary Figure S5). […] However we observed a higher cytokine levels produced upon stimulation with Hela cells, which can be explained by a higher CD1d expression.
# Supplementary file pone.0014374.s005.tif: Figure S5 Comparison of cytokine responses of human iNKT cell clones between CD1d-transfected HeLa cells and Dendritic Cells, with a limited range of analog concentrations. CD1d-transfected HeLa cells (black bars) and monocyte-derived DCs (white bars) were incubated overnight in parallel with increasing concentrations of KRN7000, C20:2 (tested from left to right at 0.1, 1, 10 and 100 nM,) and higher concentrations of other analogs (10, 100 nM, 1 and 10 µM), then used as APC for iNKT cell stimulation. After 24 h of co-culture, supernatants were harvested, and cytokine levels were measured by ELISA. The sensitivity of detection was 27.4 pg/mL for IL-4 and 82.3 pg/mL for IL-13 and IFNγ. The data shown were generated with a CD4+ iNKT cell clone (HDD3) and a double negative (DN, HDE3). (0.12 MB TIF) Click here for additional data file.
# [1] = system: human iNKT cells and NK cells; test: In vitro transactivation assay (CFSE-labeled iNKT cells co-cultured with PBMC); assay type: cell-based; settings: for IL-12 levels in supernatants / IL-13 levels in supernatants / IL-18 levels in supernatants / global IFNγ production in supernatants: 24 h, ELISA
# Description: iNKT cells were stained for 5 minutes with 1–20 µM of CFSE (Molecular probes) and 5% FCS in PBS and washed twice. As a positive control, a fraction of CFSE-labeled iNKT cells were preactivated for 30 minutes with 1 µg/mL of PMA and 250 ng/mL of Ionomycin (Sigma-Aldrich) in culture medium and extensively washed. The experiment was initiated by adding CFSE-labeled unstimulated or PMA/Ionomycin-preactivated iNKT cells to freshly prepared PBMC pulsed with vehicle or αGalCer analogs at the indicated concentrations and at an iNKT/PBMC ratio of 1/10 or 1/40. Supernatants and cells were harvested from parallel conditions after the indicated time of co-culture. For intracellular cytokine staining, brefeldin A (Golgiplug, BD Biosciences) was added 4 h before harvesting the cells, which were fixed with 1% paraformaldehyde and permeabilized with 0.1% saponin (Sigma-Aldrich) prior to mAb staining. Experiments with blocking antibodies were performed with 10 µg/mL of preservative-free mAbs, including isotype matched control, anti-IL-2, anti-IL-12, anti-IFNγ and anti-CD40L (all from BD Biosciences) or anti-IL-18 (MBL). For detection of CD40L expression by iNKT cells, co-cultures of iNKT and PBMC were prepared as above, except that monensin (Golgistop, BD Biosciences) and fluorescent CD40L specific mAb (1/10 or 1/20 final dilution) were added at the beginning of the experiment, as previously described.
# Figure 6 A novel in vitro “transactivation assay” to assess the ability of human iNKT cells to activate other leukocytes. (A) Format for analysis of transactivation of bystander leukocytes. Flow cytometric analysis was carried out for culture containing iNKT cells co-cultured for 24 hours with fresh human PBMC at a 1/10 ratio. For the intracellular detection of IFNγ, Brefeldin A was added for the last 4 hours. Representative electronic gating is shown for the discrimination of CFSE-labeled iNKT cells, B cells, T cells, and NK cells to measure IFNγ expression (or CD69 expression, not shown). Filled black histograms show staining with vehicle control and are overlaid with open gray histograms for stimulation with 100 nM of KRN7000. (B) Dose-dependent IFNγ and CD40L expression by iNKT cells (top and middle graph, respectively) and IFNγ production by transactivated NK cells (bottom graph), after 24 h of co-culture of CFSE-labeled iNKT cells and PBMCs at a 1/10 ratios and the indicated concentration of either KRN7000 (black filled circles) or the adamantanoyl (AD) analog (open circles). Data are presented for a CD4^+ clone (HDD3), and similar results (not shown) were obtained with a DN clone (HDE3). (C) Effect of specific blockade of various cytokines and CD40L on the activation of iNKT cells and transactivated NK cells. CFSE-labeled iNKT cells and PBMCs were co-cultured at a 1/40 ratio for the indicated time, in the presence of KRN7000 at 25 nM and 10 µg/mL of isotype matched control or specific blocking antibodies as indicated. Average percentages of IFNγ^+ iNKT cells and NK cells, assessed by intracellular staining at 24, 48 and 66 hours, are indicated in the left and right plots, respectively.
# Figure 7 Comparison of αGalCer analogs for their ability to induce NK cell transactivation. (A) iNKT cell clones were co-cultured for 24 hours with fresh human PBMC at a 1/10 ratio with 100 nM of the indicated analogs, and Brefeldin A was added for the last 4 hours. The percentages of IFNγ^+ iNKT cells (open bars) and IFNγ^+ NK cells (filled bars) are indicated. Cytokine levels were assessed by ELISA in supernatants from identical conditions in absence of Brefeldin A treatment: (B) IFNγ levels (open bars) and IL-13 levels (filled bars); the detection limit was 82.3 ng/mL for both cytokines. (C) IL-12 levels (open bars) and IL-18 levels (filled bars); the detection limit was 27.4 ng/mL. Results obtained with a CD4^+ clone (HDD3) are presented, and similar data (not shown) were obtained with a DN clone (HDE3).
Compound,agonist strength with Hela-CD1d cells and DC (human iNKT cell clones),IL-12 levels in supernatants ([1]; 100 nM),IL-13 levels in supernatants ([1]; 100 nM),IL-18 levels in supernatants ([1]; 100 nM),global IFNγ production in supernatants ([1]; 100 nM),"IFNγ production in bystander leukocytes (intracellular staining) ([1]; 100 nM, iNKT/PBMC 1/10)",CD69 induction in bystander leukocytes upon iNKT cell stimulation ([1]; not shown)
CCCCC/C=C\C/C=C\CCCCCCCCCC(=O)N[C@@H](CO[C@H]1O[C@H](CO)[C@H](O)[C@H](O)[C@H]1O)[C@H](O)[C@H](O)CCCCCCCCCCCCCC [C20:2],strong agonists,detectable IL-12 generation,high IL-13 levels,enhanced IL-18 levels compared to vehicle control,high global production of IFNγ,,
CCCCC/C=C\C/C=C\C/C=C\C/C=C\CCCC(=O)N[C@@H](CO[C@H]1O[C@H](CO)[C@H](O)[C@H](O)[C@H]1O)[C@H](O)[C@H](O)CCCCCCCCCCCCCC [C20:4],,detectable IL-12 generation,high IL-13 levels,enhanced IL-18 levels compared to vehicle control,high global production of IFNγ,,
"CCCCCCCCCCCCCCCCCCCCCCCCCC(=O)N[C@@H](CO[C@H]1O[C@H](CO)[C@H](O)[C@H](O)[C@H]1O)[C@H](O)[C@H](O)CCCCCCCCCCCCCC [KRN7000, reference compound]",strong agonists,,,,,"detectable at 24 h in NK cells, but not in T cells or B cells","nearly all B cells and NK cells, but not T cells, became CD69^+"

# Source: article PMC3003687, “α-Galactosylceramide Analogs with Weak Agonist Activity for Human iNKT Cells Define New Candidate Anti-Inflammatory Agents” (PLoS ONE, 2010)
